From US8309558B2, “Compounds for the treatment of hepatitis C” (Bristol-Myers Squibb Company, priority 2008, dated 2012)
Like-named read-outs stand apart in the source and are kept apart here.

Key:
[1] = target: T1, HCV NS5B RdRp genotype 1b (Hepatitis C virus genotype 1b, UniProt Q9WMX2); assay: Standard HCV NS5B RdRp enzyme assay; assay type: biochemical; settings: HCV NS5B RdRp genotype 1b, read-out: IC50
T1 construct: The protein was expressed with an 18 amino acid C-terminal truncation to enhance the solubility; made in house; host or cells: E. coli BL21(DE3), pET21a vector
T1 sequence (Q9WMX2 2420-2992): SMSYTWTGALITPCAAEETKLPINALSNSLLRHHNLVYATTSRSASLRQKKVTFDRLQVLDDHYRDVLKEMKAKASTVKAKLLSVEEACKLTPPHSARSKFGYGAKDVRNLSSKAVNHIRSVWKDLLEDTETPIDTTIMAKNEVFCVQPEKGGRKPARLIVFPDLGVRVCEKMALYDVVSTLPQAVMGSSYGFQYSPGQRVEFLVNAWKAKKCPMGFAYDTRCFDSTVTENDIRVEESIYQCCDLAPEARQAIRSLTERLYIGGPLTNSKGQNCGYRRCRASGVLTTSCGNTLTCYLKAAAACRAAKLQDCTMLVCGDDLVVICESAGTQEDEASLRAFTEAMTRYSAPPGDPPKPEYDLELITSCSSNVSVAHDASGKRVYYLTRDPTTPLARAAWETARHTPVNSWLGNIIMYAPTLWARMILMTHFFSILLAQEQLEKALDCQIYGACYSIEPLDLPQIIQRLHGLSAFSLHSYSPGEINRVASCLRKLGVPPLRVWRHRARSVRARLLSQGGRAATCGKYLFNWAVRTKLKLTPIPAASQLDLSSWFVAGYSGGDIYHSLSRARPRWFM
Method: HCV NS5B RdRp cloning, expression, and purification. The cDNA encoding the NS5B protein of HCV, genotype 1b, was cloned into the pET21a expression vector. The protein was expressed with an 18 amino acid C-terminal truncation to enhance the solubility. The E. coli competent cell line BL21(DE3) was used for expression of the protein. Cultures were grown at 37° C. for ˜4 hours until the cultures reached an optical density of 2.0 at 600 nm. The cultures were cooled to 20° C. and induced with 1 mM IPTG. Fresh ampicillin was added to a final concentration of 50 μg/ml and the cells were grown overnight at 20° C.
Cell pellets (3 L) were lysed for purification to yield 15-24 mgs of purified NS5B. The lysis buffer consisted of 20 mM Tris-HCl, pH 7.4, 500 mM NaCl, 0.5% triton X-100, 1 mM DTT, 1 mM EDTA, 20% glycerol, 0.5 mg/ml lysozyme, 10 mM MgCl2, 15 ug/ml deoxyribonuclease I, and Complete TM protease inhibitor tablets (Roche). After addition of the lysis buffer, frozen cell pellets were resuspended using a tissue homogenizer. To reduce the viscosity of the sample, aliquots of the lysate were sonicated on ice using a microtip attached to a Branson sonicator. The sonicated lysate was centrifuged at 100,000×g for 1 hr at 4° C. and filtered through a 0.2 μm filter unit (Corning).
The protein was purified using three sequential chromatography steps: Heparin sepharose CL-6B, polyU sepharose 4B, and Hitrap SP sepharose (Pharmacia). The chromatography buffers were identical to the lysis buffer but contained no lysozyme, deoxyribonuclease I, MgC12 or protease inhibitor and the NaCl concentration of the buffer was adjusted according to the requirements for charging the protein onto the column. Each column was eluted with a NaCl gradient which varied in length from 5-50 column volumes depending on the column type. After the final chromatography step, the resulting purity of the enzyme is >90% based on SDS-PAGE analysis. The enzyme was aliquoted and stored at −80° C.
Standard HCV NS5B RdRp enzyme assay. HCV RdRp genotype 1b assays were run in a final volume of 60 μl in 96 well plates (Costar 3912). The assay buffer composed of 20 mM Hepes, pH 7.5, 2.5 mM KCl, 2.5 mM MgCl2, 1 mM DTT, 1.6 U RNAse inhibitor (Promega N2515), 0.1 mg/ml BSA (Promega R3961), and 2% glycerol. All compounds were serially diluted (3-fold) in DMSO and diluted further in water such that the final concentration of DMSO in the assay was 2%. HCV RdRp genotype 1b enzyme was used at a final concentration of 28 nM. A polyA template was used at 6 nM, and a biotinylated oligo-dT12 primer was used at 180 nM final concentration. Template was obtained commercially (Amersham 27-4110). Biotinylated primer was prepared by Sigma Genosys. 3H-UTP was used at 0.6 μCi (0.29 μM total UTP). Reactions were initiated by the addition of enzyme, incubated at 30° C. for 60 min, and stopped by adding 25 μl of 50 mM EDTA containing SPA beads (4 μg/μl, Amersham RPNQ 0007). Plates were read on a Packard Top Count NXT after >1 hr incubation at room temperature.
IC50 values for compounds were determined using seven different [I]. IC50 values were calculated from the inhibition using the formula y=A+((B−A)/(1+((C/x)^D))).

HCV replicon cells = assay: HCV replicon FRET / luciferase assay (96-well plates); assay type: cell-based; settings: Hepatitis C virus, HCV replicon, read-out: EC50
Summary of the method: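 Replicon cells (with or without Renilla luciferase reporter) incubated with titrated compounds at 37 °C; Alamar blue read for cytotoxicity first. NS3 protease activity read kinetically with 20 μM EDANS/DABCYL FRET peptide in lysis reagent plus 150 mM NaCl (ex 340/em 490), or by Dual-Glo luciferase. EC50 = 50% signal reduction after protease-inhibitor background subtraction.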

[2] = untitled table after Table 1b, values without asterisk

SMILES	IC50 ([1]; Table 1a)	EC50 (HCV replicon cells; Table 1a)	IC50 ([1]; Table 1b)	EC50 (HCV replicon cells; Table 1b)	also measured
CNC(=O)c1c(-c2ccc(F)cc2)oc2ccc(-c3ccc(F)cc3Cl)cc12	> 10000 nM	> 10000 nM	–	–	–
CNC(=O)c1c(-c2ccc(F)cc2)oc2ccc(-c3cc(C(=O)NC4(CO)CC4)ccc3C)cc12	–	–	1000 to 10000 nM	1000 to 10000 nM	–
CNC(=O)c1c(-c2ccc(F)cc2)oc2ccc(-c3c(C)ccc(C(=O)NC4(c5ccccn5)CC4)c3F)cc12	–	–	< 20 nM	< 250 nM	–
CNC(=O)c1c(-c2ccc(F)cc2)oc2ccc(-c3cccc(C(=O)NC4(c5ccccc5)CC4)c3)cc12 [drawing 67]	< 250 nM	< 250 nM	–	–	–
CNC(=O)c1c(-c2ccc(F)cc2)oc2ccc(-c3cccc(C(=O)N[C@H]4CCC[C@H]4c4ccc(Cl)cc4)c3)cc12 [drawing 243]	> 10000 nM	1000 to 10000 nM	–	–	–
CNC(=O)c1c(-c2ccc(F)cc2)oc2ccc(-c3cccc(C(=O)N4CCN(CCOC)CC4)c3)cc12	> 10000 nM	> 10000 nM	–	–	–
CNC(=O)c1c(-c2ccc(F)cc2)oc2ccc(-c3cc(C(=O)N4CCC5(CC4)OCc4ccccc45)ccc3Cl)cc12	–	–	1000 to 10000 nM	1000 to 10000 nM	–
CNC(=O)c1c(-c2ccc(F)cc2)oc2cc([N+](=O)[O-])c(-c3cccc(C(=O)NC(C)(C)c4ccccc4)c3)cc12	< 250 nM	< 250 nM	–	–	–
CNC(=O)c1c(-c2ccc(F)cc2)oc2ccc(-c3cc(C(=O)NCC(C)C)ccc3OC3CCCC3)cc12	–	–	> 10000 nM	1000 to 10000 nM	–
CNC(=O)c1c(-c2ccc(F)cc2)oc2ccc(-c3cc(C(=O)NCC(C)C)ccc3OCC3CCCNC3)cc12 (stereo not shown)	–	–	< 250 nM	< 250 nM	–
CNC(=O)c1c(-c2ccc(F)cc2)oc2ccc(-c3cc(C(=O)NCC(C)C)ccc3OCc3ccnc(Br)c3)cc12	–	–	250 to 1000 nM	250 to 1000 nM	–
CNC(=O)c1c(-c2ccc(F)cc2)oc2ccc(-c3cc(C(=O)NCC(C)C)ccc3F)cc12	< 250 nM	< 250 nM	–	–	–
CNC(=O)c1c(-c2ccc(F)cc2)oc2ccc(-c3cccc(C(=O)N[C@H](C(N)=O)C(C)C)c3)cc12	250 to 1000 nM	1000 to 10000 nM	–	–	–
CNC(=O)c1c(-c2ccc(F)cc2)oc2ccc(-c3cc(OC[C@@H]4CCCN4)cc(C(=O)NCC(C)C)c3)cc12	–	–	1000 to 10000 nM	1000 to 10000 nM	–
CNC(=O)c1c(-c2ccc(F)cc2)oc2ccc(-c3cccc(-c4nc(C(C)C)no4)c3)cc12	–	–	> 1390 nM	250 to 1000 nM	–
CNC(=O)c1c(-c2ccc(F)cc2)oc2ccc(-c3cc(C(=O)NC4(c5nnc(-c6cccc(Cl)c6)[nH]5)CC4)ccc3C)cc12	–	–	< 250 nM	< 250 nM	–
CNC(=O)c1c(-c2ccc(F)cc2)oc2ccc(-c3cccc(C(=O)NC(C)(C)C(=O)OC)c3)cc12	< 250 nM	< 250 nM	–	–	–
CNC(=O)c1c(-c2ccc(F)cc2)oc2cc(N(CCO)S(C)(=O)=O)c(-c3cccc(C(=O)NC4(c5ccccn5)CC4)c3)cc12	–	–	< 250 nM	< 250 nM	–
CNC(=O)c1c(-c2ccc(F)cc2)oc2ccc(-c3cccc(C(=O)NCCOC)c3)cc12 [drawing 182]	1000 to 10000 nM	1000 to 10000 nM	–	–	–
CNC(=O)c1c(-c2ccc(F)cc2)oc2ccc(-c3ccc(C(=O)N(C)CCc4ccccn4)cc3)cc12	< 250 nM	< 250 nM	–	–	–
CNC(=O)c1c(-c2ccc(F)cc2)oc2ccc(-c3cc(C(=O)NC4(c5ccc(F)cc5)CC4)ccc3C)cc12	–	–	< 250 nM	< 250 nM	–
CNC(=O)c1c(-c2ccc(F)cc2)oc2ccc(-c3ccc(C(=O)N(C)CCC#N)cc3)cc12	1000 to 10000 nM	> 10000 nM	–	–	–

SMILES	IC50 ([1]; Table 1a)	EC50 (HCV replicon cells; Table 1a)	IC50 ([1]; Table 1b)	EC50 (HCV replicon cells; Table 1b)	also measured
CNC(=O)c1c(-c2ccc(F)cc2)oc2ccc(-c3cccc(C(=O)NC(C)(C)c4ccccc4)c3)cc12	< 250 nM	< 250 nM	–	–	–
CNC(=O)c1c(-c2ccc(F)cc2)oc2ccc(-c3cc(C(=O)O)cc([N+](=O)[O-])c3)cc12	250 to 1000 nM	> 10000 nM	–	–	–
CNC(=O)c1c(-c2ccc(F)cc2)oc2ccc(-c3cccc(C(=O)NC4(c5ccccc5)CC4)c3)cc12 [drawing 610]	–	–	–	–	IC50 ([1]; untitled table after Table 1b): 5.9 nM; EC50 (HCV replicon cells; [2]): 3.58 nM
CNC(=O)c1c(-c2ccc(F)cc2)oc2ccc(-c3cc(C(=O)NC4(c5nnc(C6CC6)[nH]5)CC4)ccc3C)cc12	–	–	< 250 nM	< 250 nM	–
CNC(=O)c1c(-c2ccc(F)cc2)oc2ccc(-c3cccc(C(=O)Nn4c(C)nnc4C)c3)cc12	250 to 1000 nM	> 10000 nM	–	–	–
CNC(=O)c1c(-c2ccc(F)cc2)oc2ccc(-c3cccc(C(=O)NCC(C)(C)C)c3)cc12	< 250 nM	< 250 nM	–	–	–
CNC(=O)c1c(-c2ccc(F)cc2)oc2ccc(-c3cccc(S(=O)(=O)N4CCOCC4)c3)cc12	> 10000 nM	> 10000 nM	–	–	–
CNC(=O)c1c(-c2ccc(F)cc2)oc2ccc(-c3cc(C(=O)NC4(c5ccccn5)CC4)c(F)cc3O)cc12	–	–	< 250 nM	250 to 1000 nM	–
CNC(=O)c1c(-c2ccc(F)cc2)oc2ccc(-c3cccc(C(=O)Nc4cccc(CC(=O)O)c4)c3)cc12	< 250 nM	> 10000 nM	–	–	–
C#CC(C)(C)NC(=O)c1cccc(-c2ccc3oc(-c4ccc(F)cc4)c(C(=O)NC)c3c2)c1	< 250 nM	< 250 nM	–	–	–
CNC(=O)c1c(-c2ccc(F)cc2)oc2ccc(-c3cccc(C(=O)NCCOC)c3)cc12 [drawing 615]	–	–	–	–	IC50 ([1]; untitled table after Table 1b): 1710 nM; EC50 (HCV replicon cells; [2]): 1340 nM
C#CCOc1cc(C)c(-c2ccc3oc(-c4ccc(F)cc4)c(C(=O)NC)c3c2)cc1C(=O)NC1(c2ccccn2)CC1	–	–	–	–	IC50 ([1]; Table 1d (class symbols)): 1 to 250 nM; EC50 (HCV replicon cells; 24 h, Table 1d (class symbols)): 1 to 250 nM
CNC(=O)c1c(-c2ccc(F)cc2)oc2ccc(-c3cccc(C(=O)Nc4cc(C)ccn4)c3)cc12	250 to 1000 nM	< 250 nM	–	–	–
CNC(=O)c1c(-c2ccc(F)cc2)oc2ccc(-c3cc(N)ccc3C)cc12	–	–	1000 to 10000 nM	1000 to 10000 nM	–
CNC(=O)c1c(-c2ccc(F)cc2)oc2ccc(-c3cc(C(=O)NC4(c5ccccn5)CC4)c(OC)cc3OCC(N)=O)cc12	–	–	< 20 nM	< 250 nM	–
CNC(=O)c1c(-c2ccc(F)cc2)oc2ccc(-c3ccc(C(=O)NCCC(N)=O)cc3)cc12	> 10000 nM	> 10000 nM	–	–	–
CNC(=O)c1c(-c2ccc(F)cc2)oc2cc(N(CCO)S(C)(=O)=O)c(-c3cc(C(=O)NC4(c5ccccc5)CC4)ccc3F)cc12	–	–	< 250 nM	< 250 nM	–
CNC(=O)c1c(-c2ccc(F)cc2)oc2ccc(-c3cc(C(=O)NC4(c5ncc(C)s5)CC4)ccc3C)cc12 [drawing 708]	–	–	–	–	IC50 ([1]; second table titled Table 1d (numbers)): < 17 nM; EC50 (HCV replicon cells; 24 h, second table titled Table 1d (numbers)): 1.9 nM
CNC(=O)c1c(-c2ccc(F)cc2)oc2ccc(-c3cc(C(=O)NC4(c5ccccc5)CC4)ccc3F)cc12 [drawing 100]	< 250 nM	< 250 nM	–	–	–
CNC(=O)c1c(-c2ccc(F)cc2)oc2ccc(-c3cc(C(=O)NC4(c5ccccn5)CC4)c(OCCC(N)=O)cc3C)cc12	–	–	–	–	IC50 ([1]; Table 1d (class symbols)): < 20 nM; EC50 (HCV replicon cells; 24 h, Table 1d (class symbols)): 1 to 250 nM
CNC(=O)c1c(-c2ccc(F)cc2)oc2ccc(-c3cccc(C(=O)Nc4cc(C)nn4C)c3)cc12	< 250 nM	< 250 nM	–	–	–
CNC(=O)c1c(-c2ccc(F)cc2)oc2ccc(-c3ccc(-c4ccnc(N)c4)c(C(=O)NCC(C)C)c3)cc12	–	–	< 20 nM	< 250 nM	–
